Assay results as given in PMC3050713 (Cancer chemotherapy and pharmacology, 2008).
Where a name gives a salt, the structure may show the parent alone. Read-outs that look alike come from different tables or passages of the source.

Experiments:
[1] = Phase 1 dose escalation: toxicity, DLT and MTD of Triapine with doxorubicin; format: in vivo, human
[2] = Triapine pharmacokinetics in plasma and erythrocytes; format: in vivo, human; settings: for Tmax: 45 mg/m2, Tmax, Triapine 25 or 45 mg/m2, cycle 1 day 1
L1210 leukemia = settings: murine models; cited from earlier work
[3] = test system: Madison 109 (M109) lung tumors; settings: twice daily intra-peritoneal for 5-6 days at 8-10 mg/kg/dose; cited from earlier work
A2780 ovarian tumors = settings: twice daily intra-peritoneal for 5-6 days at 8-10 mg/kg/dose; cited from earlier work
[4] = cited from earlier work
[5] = cited from earlier work; remark: listed apart in the source
clinical = settings: human
[6] = Doxorubicin pharmacokinetics in plasma; settings: mean
[7] = human, erythrocytes, intravenous
[8] = 2 hour IV infusions for 5 days of every 28 day cycle

## NC(=S)NN=Cc1ncccc1N [Triapine, 3-aminopyridine-2-carboxaldehyde thiosemicarbazone]
[1]; Triapine 2 hour infusion on days 1-4
  recommended phase II combination dose: 25 mg/m^2
[2]; erythrocytes, dose adjusted, mean
  Cmax: 0.71 µg/mL
[2]; erythrocytes, mean
  Cl: 0.34 mL/min/m^2
  Vss: 83 L/m^2
[2]; [7]
  AUC(0-inf): 1450 ng·h/mL
  Cmax: 0.71 ± 0.18 µg/mL
[2]; human, erythrocytes, intravenous, 45 mg/m2
  half-life: 252 min
[2]; human, erythrocytes, intravenous, erythrocytes, mean
  Tmax: 2.4 min
[2]; human, plasma, intravenous
  AUC(0-inf): 1210 ng·h/mL
  Cmax: 0.65 ± 0.18 µg/mL
[2]; human, plasma, intravenous, plasma, mean
  Tmax: 13.2 ± 6.6 min
[2]; human, plasma, iv
  half-life: 318 min
[2]; plasma, dose adjusted, mean
  Cmax: 0.65 µg/mL
[2]; plasma, mean
  Cl: 0.38 mL/min/m^2
  Vss: 107 L/m^2
L1210 leukemia
  anti-tumor activity: displayed anti-tumor activity
[3]
  effect on tumors: effective
A2780 ovarian tumors
  effect on tumors: effective
[4]; 2-hour infusion daily x 5 schedule
  major DLT: transient neutropenia
[4]; [8]
  patients with grade 2 anemia: 73%
  patients with grade 3 anemia: 22%
  patients with grade 3 or 4 thrombocytopenia: 22%
  patients with grade 4 leucopenia in at least one course: 93%
  single-agent MTD: 96 mg/m^2
[4]; 2 hour infusion of ≥ 140 mg/m^2
  toxicities associated with the infusion: reversible hypotension, hypoxia, dyspnea, cough, and EKG changes including ST-T wave changes and prolongation of the QT interval
[4]; single 2-hour IV infusion every 4 weeks, doses up to 105 mg/m^2
  DLTs: no DLTs were observed
[4]; single 2-hour IV infusion every 4 weeks
  anti-tumor activity: no anti-tumor activity was observed
[4]; single agent, daily for 4 days
  recommended phase II dose: 96 mg/m2

## COc1cccc2c1C(=O)c1c(O)c3c(c(O)c1C2=O)C[C@@](O)(C(=O)CO)C[C@@H]3O[C@H]1C[C@H](N)[C@H](O)[C@H](C)O1 [doxorubicin, Doxorubicin hydrochloride]
[1]; doxorubicin IV bolus on day 1 immediately following Triapine
  recommended phase II combination dose: 60 mg/m^2
[5]; cumulative dose 450 mg/m^2
  incidence of CHF: 4%
[5]; cumulative dose up to 300 mg/m^2
  incidence of CHF: 1%
[5]; doxorubicin 60 mg/m^2 every 21 days
  patients with leucopenia: approximately 75%
clinical; in vivo, iv
  half-life: 608 min
clinical; plasma, intravenous
  Tmax: 12 min
[6]
  Cl: 252 mL/min/m^2
  Vss: 219 L/m^2
